{
  "source": "paper PMC8086892",
  "about": "(Peptide science (Hoboken, N.J.), 2020)",
  "origin": "cited, not measured here",
  "key": {"[1]": {"settings": "ref Orivel et al. [27]"}, "[2]": {"settings": "ref Orivel et al. [27]", "remark": "listed apart in the source"}},
  "data": [
    {"substance": "Ponericin L2", "values": [
      {"measurement": "Hemolytic activity", "setting": "[1]", "value": "no detectable hemolytic activity"},
      {"measurement": "Antimicrobial activity", "setting": "[2]", "value": "broad spectrum antimicrobial activity"}
    ]}
  ]
}
